This note sets out measurements from patent EP4088722A1, “PHARMACEUTICAL COMPOSITIONS, USES THEREOF AND METHODS FOR TREATMENT OF GENETIC DISEASES CAUSED BY INTRONIC SPLICE-ACCEPTOR SITE MUTATIONS” (priority 2021, dated 2022).

For series [1], the system named is AGA-luciferase minigene constructs (c.128-2A>G). The series can be described thus: AGA luciferase minigene splicing assay in AGU patient fibroblasts. The format is cell-based, human. To be noted: 24 h; for luciferase readout: increasing amounts; for luciferase activity: 7.5 mM.
The subject of series [2] is endogenous AGA mRNA with exon 2. It is filed as cell-based, human. The note with it: 24 h, patient fibroblasts. On the procedure:
(§1) Fibroblasts were seeded into 6-well plates and treated with the following compounds: caffeine, theophylline, theobromine, pentoxifylline, doxofylline(1-7.5 mM, solvent H2O; TCI, Eschborn, Germany), luteolin (10-50 µM, solvent DMSO; Biozol, Eching, Germany) or kinetin (10-100 µM, solvent DMSO; TCI, Eschborn,Germany) for 24 h (RNA) or 48 h (protein lysate). Cells were harvested in lysis buffer (50 mM Tris pH 7.4, 150 mM NaCl, 2 mM EDTA, 1% NP-40), supplemented with protease inhibitor cocktail (Sigma-Aldrich). Protein concentrations in the lysates were determined according to the Bradford method.
(§2) For qPCRs, total RNA was isolated with peqGOLD TriFast™ (VWR, Darmstadt, Germany) and included a DNAse step. Total RNA (1-3 µg) were reverse transcribed with 150 fmol oligo(dT) primers and M-MuLV reverse transcriptase (NEB, Frankfurt, Germany) in a total volume of 45 µL. Real-time quantitative PCRs were performed using the CFX Connect Real-Time PCR Detection System (Bio-Rad, Munich, Germany). Annealing temperature was 60°C for all primers. The reactions were done as duplicates with 0.8 µL cDNA in a total volume of 10 µL using iTaq-TMUniversal SYBR Green Supermix (Bio-Rad). PCR products were quantified with the ACt-method. For normalization, the mean of the reference genes B2M, Rpl13a, Ywhaz and TBP was used. Table 2. Sequences of primers used for the quantitative real-time PCR.

For series [3], the system named is AGA minigene construct without luciferase (c.128-2A>G). Kind of series: cells. It is filed as cell-based, human. The note with it: 24 h; for fold induction at 7500 µM: Homo sapiens, HEK-293T, read-out: increase in the correctly spliced product (exons 2 and 3); for changes in the splicing (correctly spliced product): 7.5 mM, qRT-PCR. On the procedure:
as §2
RNA was isolated from the cells, reverse transcribed to cDNA, and a qRT-PCR with a fwd primer residing in exon 2 and a reverse primer in the plasmid vector (3'-untranslated region of the resulting RNA) was performed. Thus, amplification of a PCR product of 271 bp is only observed when both exons 2 and 3 are present in the mRNA.

A further series has as its system AGA mRNA. Kind of series: qRT-PCR of AGA mRNA in control fibroblasts. It is filed as cell-based, human. To be noted: 7.5 mM caffeine, 24 h. On the procedure: as §1, §2
In series [4] the test system is AGA minigene containing the splice variant (c.128-2A>G). Kind of series: AGA minigene luciferase splicing assay in AGA knockout HEK293T cells. The note with it: for splicing of the AGA minigene / variant (summary statement): overall statement in the description, across the AGA assays.
Method: HEK293T (human embryonic kidney cells) cells were cultured in Dulbecco's modified Eagle's medium (DMEM) with high glucose, 10% fetal calf serum (FCS), 1 % penicillin/streptomycin (all from Gibco, Thermo Fisher Scientific, Germany). […] Immortalized, hTERT-transformed normal human skin fibroblasts were used as control [(Banning, A.; et al. Identification of Small Molecule Compounds for Pharmacological Chaperone Therapy of Aspartylglucosaminuria. Sci Rep 2016, 6, 37583]. All fibroblasts were cultured in DMEM (high glucose), 10% FCS, 1 % penicillin/streptomycin, 1 % non-essential amino acids and 1 % sodium pyruvate. All cells were grown at 8% CO2 and 37°C.
For transient transfection, cells were seeded onto 12-well plates on the day before transfection. For transfections, 400 ng of expression plasmid DNA and 50 ng of pRL-TK Renilla luciferase control reporter vector (Promega) were transfected using MACSfectin™ (Miltenyi Biotec, Bergisch Gladbach, Germany) according to the manufacturer's protocol. Fibroblasts were transfected with Neon Transfection System (Invitrogen). The following day, the cells were transferred onto 24-well plates, treated with specific substances and harvested after 24 h of treatment in lysis juice for firefly and renilla luciferase assay (PJK GmbH, Kleinblittersdorf, Germany). Determination of firefly and renilla luciferase activity was performed with a Tecan infinite M200 plate reader using 20 µl of lysate and 85 µl of beetle or renilla juice (PJK) as reagents. Relative luciferase activity was calculated by dividing the firefly luciferase activity by the renilla luciferase activity.
This construct contains the splice acceptor site mutation -2A>G in intron 1. If exon 2 is spliced out, altered reading frame in exon 3 produces an early STOP codon and prevents the expression of luciferase. However, if all three exons are correctly spliced, the luciferase ORF is translated in-frame as a fusion protein with the AGA protein sequence coded by exons 1-3.
Another series has as its system AGA activity. Kind of series: AGA activity in patient fibroblasts, colorimetric Morgan-Elson assay with AADG as substrate. It is filed as cell-based, human. To be noted: 25 µM luteolin, 48 h. On the procedure:
as §1
In most experiments, AGA activity was measured fluorimetrically as described in Banning, A.; et al. Sci Rep 2016, 6, 37583. […] In short, 12.5 µl of cell lysate were mixed with 100 nmol AADG, 3.35 µl 0,5 M KH2PO4, pH8, and 0.9% NaCl to reach a total volume of 25 µl. […] The liberated N-acetylglucosamine was measured at 585 nm. […]
Due to these encouraging data, the AGA activity was measured in patient fibroblasts treated with 25 µM luteolin (Figure 10b). Since luteolin acts as a quencher in our standard fluorescence-based AGA activity measurement [Schoefer, L.; Braune, A., FEMS Microbiol Lett 2001, 204, 277-280, and our own observations], we used a colorimetric activity assay [Tikkanen, R.; et al., DNA Cell Biol 1995, 14, 305-312] that is less sensitive but not subject to quenching by luteolin.

[5] abbreviates: 7.5 mM, 24 h, compared to untreated cells.

As to `Cn1c(=O)c2c(ncn2C)n(C)c1=O` [caffeine, 1,3,7-trimethylxanthine], in series [1], the luciferase readout entry is reported as “significant, dose dependent increase in the luciferase readout”. Further, in series [2] (7.5 mM caffeine), the “endogenous AGA mRNA splicing products that contain exons 2 and 3” value is recorded as “significantly increased to a level that corresponds to the untreated control fibroblasts”. In addition, the fold induction at 7500 µM in series [3] was roughly 20. In addition, the “AGA mRNA” value in the series with AGA mRNA is reported as “increase in the AGA mRNA in control fibroblasts”. The luciferase activity entry in series [4] (setting [5]) was “highest increase”.

`Cn1c(=O)c2c(ncn2CC2OCCO2)n(C)c1=O` [doxofylline, 7-(1,3-dioxolan-2-ylmethyl)-1,3-dimethylpurine-2,6-dione]: the luciferase activity entry in series [1] is given as “failed to do so”; in series [4] (setting [5]), “significantly increased luciferase activity”. Besides, in series [3], the “changes in the splicing (correctly spliced product)” value was “did not produce significant changes in the splicing”. Moreover, the “splicing of the AGA minigene / variant (summary statement)” value in series [4] is “consistently failed to exert any significant effects”.

Regarding `c1coc(CNc2ncnc3[nH]cnc23)c1` [kinetin], the “endogenous AGA mRNA with exon 2” value in series [2] (kinetin 50 µM) is “no significant increase”. In addition, the luciferase activity result in series [4] (kinetin, lower concentrations (from 10 µM, below 100 µM), 24 h) is “only minor effects”. Moreover, in series [4], the “splicing of the AGA minigene / variant (summary statement)” value is on record as “no systematic positive effect”.

Turning to `O=c1cc(-c2ccc(O)c(O)c2)oc2cc(O)cc(O)c12` [luteolin, 3',4',5,7-tetrahydroxyflavone], the AGA activity entry in the series on AGA activity is “significant increase in the AGA activity”. Moreover, in series [2] (Homo sapiens, Fibroblast, luteolin 25 µM, read-out: increase of endogenous AGA mRNA with exon 2), the fold induction at 25 µM was roughly 2.5. Further, the “increase in luciferase activity” value in series [4] (25 µM luteolin, 24 h, most efficient concentration) was 5-6 fold. Also, the luciferase activity result in series [4] (all luteolin concentrations, 10 µM - 50 µM, 24 h) is on record as “significant increase in luciferase activity”. The “luciferase expression in Western blot” value in series [4] (lysates of the luteolin/kinetin luciferase assay) is on record as “strong luciferase expression”.

In the case of `CC(=O)CCCCn1c(=O)c2c(ncn2C)n(C)c1=O` [pentoxifylline, 3,7-dimethyl-1-(5-oxohexyl) xanthine], the luciferase activity entry in series [1] was “significantly increased the luciferase activity”; in series [4] (setting [5]), “significantly increased luciferase activity”. The fold induction at 7500 µM in series [3] was 5 to 10.

On to `Cn1cnc2c1c(=O)[nH]c(=O)n2C` [theobromine, 3,7-dimethylxanthine], for which the luciferase activity entry in series [1] was “failed to do so”; in series [4] (four concentrations 1 mM - 7.5 mM, 24 h, compared to untreated cells) it was “non-significant changes”. Moreover, the “changes in the splicing (correctly spliced product)” value in series [3] is “did not produce significant changes in the splicing”.

As to `Cn1c(=O)c2[nH]cnc2n(C)c1=O` [theophylline, 1,3-dimethylxanthine], in series [1], the luciferase readout result was “significant, dose dependent increase in the luciferase readout”. Also, in series [3], the fold induction at 7500 µM is 5 to 10. Further, the luciferase activity entry in series [4] (setting [5]) is listed as “significantly increased luciferase activity”.
